# Assay results from publication PMC9404946, “Antioxidant Capacities and Enzymatic Inhibitory Effects of Different Solvent Fractions and Major Flavones from Celery Seeds Produced in Different Geographic Areas in China” (Antioxidants, 2022).
# Marks after values point to notes of the source that are not given here.
# How the values were obtained:
# [1] = Metal chelating activity on ferrous ions (ferrozine); assay type: biochemical; settings: for Metal Chelating: main flavonoids (Table 5)
# Protocol: The iron-chelating activity of each fraction was estimated by the method described by Sapatinha et al. with modifications. Briefly, 50 μL of each sample solution and 50 μL of 1 mM FeCl2 were mixed. Then, the reaction was initiated by adding 100 μL of 2.5 mM ferrozine solution. The mixture was kept at room temperature for 10 min. The absorbance of the resulting solution was measured at 562 nm. The results are expressed as milligrams of ethylenediaminetetraacetic acid (EDTA) equivalent per gram of extract (mg EDTAE/g extract) (calibration curve from different concentrations: 0–55 μg/mL; Absorbance: y = −0.0477x + 3.0616, R² = 0.9966, Figure S2K).
# [2] = ABTS radical scavenging assay; assay type: biochemical
# Protocol: The ABTS radical scavenging activity of each fraction was measured based on the method with slight modifications. A 28 mM ABTS and a 9.6 mM potassium persulfate working solution were prepared, mixed in equal volumes, and the mixture was left to stand for 16 h at room temperature, protected from light. The working solution was diluted with EtOH to reach an absorbance of 0.70 ± 0.02 at 740 nm and used for further experiments. Different extracts or compounds (20 μL) concentrations were mixed with the working solution (180 μL). The mixture was incubated at room temperature for 15 min, and the absorbance was recorded at 734 nm (As). DMSO and ABTS reagents in the same volume were mixed to measure the absorbance as the control (A0). Then, the antioxidant activity of the mixture was determined by calculating the decrease using the following formula:ABTS radical inhibiting activity (%) = (A0 − As)/A0 × 100, where A0 is the absorbance of the control (untreated group), and As is the absorbance of the test sample. BHT and VC were used as the positive control.
# [3] = target: T1, porcine pancreatic α-amylase (Sus scrofa, UniProt P00690); experiment: α-Amylase inhibitory activity (starch-iodine); assay type: biochemical
# T1 construct: purchased Shanghai Yuanye Biotechnology Co. (Shanghai, China)
# T1 sequence (P00690 16-511): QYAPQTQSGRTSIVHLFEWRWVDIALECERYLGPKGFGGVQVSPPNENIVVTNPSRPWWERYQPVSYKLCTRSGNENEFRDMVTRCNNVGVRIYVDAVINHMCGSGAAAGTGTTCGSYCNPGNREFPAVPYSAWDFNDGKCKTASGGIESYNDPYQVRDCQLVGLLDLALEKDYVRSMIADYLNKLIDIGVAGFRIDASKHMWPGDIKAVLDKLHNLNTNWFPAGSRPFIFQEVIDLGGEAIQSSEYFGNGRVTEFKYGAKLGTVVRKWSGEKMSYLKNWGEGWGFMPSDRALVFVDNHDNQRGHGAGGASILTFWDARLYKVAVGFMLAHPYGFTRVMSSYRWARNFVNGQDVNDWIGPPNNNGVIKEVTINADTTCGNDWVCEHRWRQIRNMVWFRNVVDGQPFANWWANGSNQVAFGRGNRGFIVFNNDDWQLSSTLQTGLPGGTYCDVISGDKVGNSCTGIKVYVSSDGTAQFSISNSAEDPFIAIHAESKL
# From the text: (§1) Butylated hydroxytoluene (BHT) and ethylene diamine tetraacetic acid (EDTA) were purchased from Sigma-Aldrich (Shanghai, China). […] Methanol (MeOH), ethanol (EtOH), and dichloromethane (DCM) were purchased from Tianjin Fuyu (Tianjin, China). Ammonium acetate (NH4Ac), iodine (I2), potassium iodide (KI), soluble-starch, acetic acid (AcOH), n-butanol (nBuOH), and silica sand were obtained from Guoyao (Shanghai, China). The products were purified by flash column chromatography on 200–300 mesh silica gel purchased from Xinnuo Huagong (Yantai, Shandong, China). Methanol and acetonitrile of the high-performance liquid chromatography (HPLC) grade were purchased from Thermo Fisher Scientific (Waltham, MA, USA). DMSO-D6 was purchased from J&K (Beijing, China).
# [4] = Cupric reducing antioxidant capacity (CUPRAC); assay type: biochemical; settings: main flavonoids (Table 5)
# Protocol: The cupric ion reducing antioxidant capacity (CUPRAC) was measured according to the method of Drouet et al. with modifications. Briefly, 50 μL of the extract sample was mixed with 150 μL of the CUPRAC solution (composed of 10 mM CuCl2, 7.5 mM neocuproine, and 1 M NH4Ac buffer pH 7; ratio 1:1:1 (v/v/v)). After incubation for 15 min at room temperature, the absorbance value at 450 nm of the reaction mixture was measured. The results were reported as […] of Trolox equivalents (TE) per gram of extract (mg TE/g extract) (calibration curve from different concentrations: 0–70 μg/mL; Absorbance: y = 0.0279x + 0.0126, R² = 0.9997, Figure S2J).
# [5] = DPPH radical scavenging assay; assay type: biochemical; settings: main flavonoids and positive controls (Table 5)
# Protocol: The scavenging ability of the free radical DPPH was investigated as described with slight modification. The sample solution (100 μL) and DPPH reagent (0.11 mg/mL, 100 μL) were mixed and incubated (30 min) at room temperature and in darkness. Then, a multi-detection microplate reader was used to measure the absorbance at 517 nm (As). The control group was mixed with DMSO and DPPH reagent in the same volume (A0). A formula was used to calculate the DPPH radical scavenging activity:DPPH radical scavenging activity (%) = [(A0 − As)/A0] × 100, where A0 is the absorbance of the control (untreated group), and As is the absorbance of the test sample. BHT and VC were used as the positive control.
# [6] = Ferric reducing antioxidant power (FRAP); assay type: biochemical
# Protocol: The measurement of FRAP was based on previous studies with slight modifications. A total of 180 uL of FRAP working solution (acetate buffer (pH 3.6): ferric chloride solution (20 mM): TPTZ solution (10 mM) = 10:1:1) was mixed with 20 μL of sample solution and incubated for 30 min at room temperature. The absorbance was measured at 593 nm. The standard curve was linear from 0 to 30 μg Trolox with an R^2 value of 0.9999 (Absorbance: y = 0.0943x + 0.0126, Figure S2I). The results are expressed as milligrams of TE/g dry weight.
# [7] = target: Saccharomyces cerevisiae α-glucosidase; experiment: α-Glucosidase inhibitory activity assay (PNPG substrate); assay type: biochemical; settings: main flavonoids and acarbose (Table 5)
# From the text: as §1
# The α-glucosidase inhibition test was performed as previously described with some variations. PBS (0.1 M, pH = 6.8), α-glucosidase (5 U/mL), and PNPG (5 mM) were prepared and stored at 4 °C for further use. In total, 20 μL of different concentration sample solution (DMSO dissolved) or DMSO, 60 μL of PBS, and 20 μL of α-Glucosidase (0.5 U/mL) were added to a 96-well plate and incubated for 20 min at 37 °C. Then, 20 μL of PNPG (5 mM) solution was added and incubated for another 15 min at 37 °C. Subsequently, 80 μL of Na2CO3 (0.1 M) solution was added to terminate the reaction. […] Inhibition (%) was calculated based on absorbance with the following formula: Inhibitor (%) = (A0 − As)/A0 × 100%, where A0 is the absorbance of the blank group, and As is the absorbance of the test group. The IC50 values were calculated using GraphPad Prism 8.0 (GraphPad Software, Inc., La Jolla, CA, USA) to evaluate the α-glucosidase inhibition activity of the tested compounds.
# α-amylase = target: α-amylase; parameters: method as in PMID 32344340; settings: previously reported; cited from earlier work
# [8] = main flavonoids and positive controls (Table 5)
# [9] = main flavonoids and positive control (Table 5)
# [10] = solvent fractions and positive controls (Table 3 and text)
# [11] = solvent fractions and positive control, Trolox equivalent
"ABTS IC50 [2, 8]",IC50 [3],DPPH IC50 [5],IC50 [7],"ABTS IC50 [2, 10]",Structure (SMILES),Metal Chelating [1],CUPRAC [4],"FRAP [6, 9]",Fe2+ chelating capacity [1],α-amylase inhibitory activity IC50 (α-amylase),"FRAP [6, 11]"
461.00 ± 11.04 ^b μg/mL,1740 ± 40 µM,4885.33 ± 56.01 ^b μM,77.5 ± 4.84 µM,–,O=c1cc(-c2ccc(O)cc2)oc2cc(O[C@@H]3O[C@H](CO)[C@@H](O)[C@H](O)[C@H]3O)cc(O)c12 [Apigenin-7-O-Glucoside],5.69 ± 0.19 ^h mg EDTAE/g,33.45 ± 0.51 ^g mg TE/g,25.90 ± 0.49 ^i mg TE/g,–,–,–
223.63 ± 10.35 ^c μg/mL,–,1292.00 ± 31.00 ^d μM,80 ± 0.85 µM,–,O=c1cc(-c2ccc(O)cc2)oc2cc(O)cc(O)c12 [Apigenin],54.20 ± 1.28 ^c mg EDTAE/g,76.44 ± 1.83 ^f mg TE/g,59.41 ± 0.24 ^h mg TE/g,54.20 mg EDTA/g,–,–
"5.72 ± 0.10 ^h,i μg/mL",–,39.13 ± 0.93 ^g μM,–,3.79 ± 0.04 ^l μg/mL,"Cc1cc(C(C)(C)C)c(O)c(C(C)(C)C)c1 [BHT, Butylated hydroxytoluene, reference compound]",–,–,406.39 ± 4.65 ^d mg TE/g,–,–,406.39 mg TE/g
46.64 ± 1.24 ^d μg/mL,1860 ± 20 µM,848.23 ± 143.61 ^e μM,39.8 ± 1.05 µM,–,COc1cc(-c2cc(=O)c3c(O)cc(O[C@@H]4O[C@H](CO)[C@@H](O)[C@H](O)[C@H]4O)cc3o2)ccc1O [Chrysoeriol-7-O-glucosid],8.22 ± 0.84 ^g mg EDTAE/g,495.51 ± 6.64 ^d mg TE/g,203.35 ± 6.33 ^f mg TE/g,–,–,–
16.69 ± 0.55 ^f μg/mL,–,580.10 ± 35.54 ^f μM,–,–,COc1cc(-c2cc(=O)c3c(O)cc(O)cc3o2)ccc1O [Chrysoeriol],36.49 ± 0.22 ^d mg EDTAE/g,947.43 ± 5.72 ^b mg TE/g,337.96 ± 0.88 ^e mg TE/g,36.49 mg EDTA/g,–,–
6.88 ± 0.05 ^h μg/mL,–,12.47 ± 0.08 ^h μM,104 ± 5.75 µM,–,O=c1cc(-c2ccc(O)c(O)c2)oc2cc(OC3OC(CO)C(O)C(O)C3OC3OCC(O)(CO)C3O)cc(O)c12 (stereo not drawn) [Graveobioside A],89.98 ± 0.42 ^a mg EDTAE/g,887.17 ± 8.95 ^c mg TE/g,882.04 ± 0.43 ^b mg TE/g,–,–,–
29.43 ± 1.33 ^e μg/mL,–,3266.33 ± 365.08 ^c μM,104 ± 1.85 µM,–,COc1cc(-c2cc(=O)c3c(O)cc(OC4OC(CO)C(O)C(O)C4OC4OCC(O)(CO)C4O)cc3o2)ccc1O (stereo not drawn) [Graveobioside B],21.32 ± 1.51 ^e mg EDTAE/g,328.10 ± 14.10 ^e mg TE/g,166.87 ± 2.97 ^g mg TE/g,–,–,–
9.41 ± 0.42 ^g μg/mL,–,9.28 ± 0.06 ^i μM,49.9 ± 2.85 µM,–,O=c1cc(-c2ccc(O)c(O)c2)oc2cc(O[C@@H]3O[C@H](CO)[C@@H](O)[C@H](O)[C@H]3O)cc(O)c12 [Luteolin-7-O-glucoside],8.51 ± 0.21 ^g mg EDTAE/g,955.05 ± 3.64 ^b mg TE/g,830.71 ± 8.52 ^c mg TE/g,–,–,–
"4.58 ± 0.02 ^i,j μg/mL",2110 ± 10 µM,4.65 ± 0.16 ^j μM,58.8 ± 2.97 µM,–,O=c1cc(-c2ccc(O)c(O)c2)oc2cc(O)cc(O)c12 [Luteolin],88.44 ±0.64 ^b mg EDTAE/g,1502.63 ± 15.92 ^a mg TE/g,1025.12 ± 10.78 ^a mg TE/g,88.44 mg EDTA/g,–,–
3.79 ± 0.04 ^j μg/mL,–,5.32 ± 0.11 ^j μM,–,5.72 ± 0.10 ^l μg/mL,"O=C1O[C@H]([C@@H](O)CO)C(O)=C1O [VC, ascorbic acid, reference compound]",–,–,–,–,–,406.39 ± 4.65 ^d mg TE/g

Structure (SMILES),"ABTS IC50 [2, 8]",IC50 [3],DPPH IC50 [5],IC50 [7],"ABTS IC50 [2, 10]",Metal Chelating [1],CUPRAC [4],"FRAP [6, 9]",Fe2+ chelating capacity [1],α-amylase inhibitory activity IC50 (α-amylase),"FRAP [6, 11]"
O=c1cc(-c2ccc(O)cc2)oc2cc(O[C@@H]3O[C@H](CO)[C@@H](O)[C@H](O)[C@H]3O[C@@H]3OC[C@](O)(CO)[C@H]3O)cc(O)c12 [Apiin],1055.33 ± 24.68 ^a μg/mL,–,7686.33 ± 200.18 ^a μM,199 ± 14.9 µM,–,17.15 ± 1.37 ^f mg EDTAE/g,25.26 ± 0.18 ^g mg TE/g,5.97 ± 1.49 ^j mg TE/g,–,1084 µg/mL,–
